# From patent US8642590B2, “Alkylcyclohexylethers of dihydrotetraazabenzoazulenes” (Hoffmann-La Roche Inc., priority 2008, dated 2014)
# Structures can show the parent of a compound that is named as a salt.
# Molecular target: T1, human V1a receptor (Homo sapiens, UniProt P37288)
# T1 construct: expressed in transfected cells; host or cells: HEK293 cells, transiently transfected; cell membranes prepared
# Test: human V1a receptor binding study (3H-Vasopressin, SPA beads, HEK293 membranes)
# Settings: membranes of HEK293 cells transiently transfected with human V1a receptor; 3H-Vasopressin; Ki calculated using the Cheng-Prussoff equation; read-out: pKi (hV1a) (converted)
# Description: The human V1a receptor was cloned by RT-PCR from total human liver RNA. The coding sequence was subcloned in an expression vector after sequencing to confirm the identity of the amplified sequence. […] Cell membranes were prepared from HEK293 cells transiently transfected with the expression vector and grown in 20 liter fermenters with the following protocol.
# 50 g of cells are resuspended in 30 ml freshly prepared ice cold Lysis buffer (50 mM HEPES, 1 mM EDTA, 10 mM magnesium dichloride adjusted to pH=7.4+complete cocktail of protease inhibitor (Roche Diagnostics)). Homogenized with Polytron for 1 min and sonicated on ice for 2×2 minutes at 80% intensity (Vibracell sonicator). The preparation is centrifuged 20 min at 500 g at 4° C., the pellet is discarded and the supernatant centrifuged 1 hour at 43,000 g at 4° C. (19,000 rpm). The pellet is resuspended in 12.5 ml Lysis buffer+12.5 ml Sucrose 20% and homogenized using a Polytron for 1-2 min. The protein concentration is determined by the Bradford method and aliquots are stored at −80° C. until use. For binding studies 60 mg Yttrium silicate SPA beads (Amersham) are mixed with an aliquot of membrane in binding buffer (50 mM Tris, 120 mM sodium chloride, 5 mM potassium chloride, 2 mM Calcium dichloride, 10 mM magnesium dichloride) for 15 minutes with mixing. 50 μl of bead/membrane mixture is then added to each well of a 96 well plate, followed by 50 μl of 4 nM 3H-Vasopressin (American Radiolabeled Chemicals). For total binding measurement 100 μl of binding buffer are added to the respective wells, for non-specific binding 100 μl of 8.4 mM cold vasopressin and for compound testing 100 μl of a serial dilution of each compound in 2% dimethyl sulfoxide. The plate is incubated 1 h at room temperature, centrifuged 1 min at 1000 g and counted on a Packard Top-Count. Non-specific binding counts are subtracted from each well and data is normalized to the maximum specific binding set at 100%. To calculate an IC 50 the curve is fitted using a non-linear regression model (XLfit) and the Ki is calculated using the Cheng-Prussoff equation.
# T1 sequence (P37288 whole entry): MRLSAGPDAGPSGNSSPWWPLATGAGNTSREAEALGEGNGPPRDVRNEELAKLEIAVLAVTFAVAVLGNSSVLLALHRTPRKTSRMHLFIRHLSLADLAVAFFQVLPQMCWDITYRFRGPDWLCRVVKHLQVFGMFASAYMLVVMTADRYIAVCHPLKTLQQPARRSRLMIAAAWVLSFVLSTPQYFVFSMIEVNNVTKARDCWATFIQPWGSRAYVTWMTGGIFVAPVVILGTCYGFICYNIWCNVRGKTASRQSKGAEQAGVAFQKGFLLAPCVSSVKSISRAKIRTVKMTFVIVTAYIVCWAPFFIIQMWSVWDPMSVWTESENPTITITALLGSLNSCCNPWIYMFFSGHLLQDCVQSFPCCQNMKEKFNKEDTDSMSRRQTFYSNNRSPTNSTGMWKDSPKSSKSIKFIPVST
row,Compound,Ki [nM]
1,"CCC(C)O[C@H]1CC[C@H](c2nnc3n2-c2ccc(Cl)cc2CN(C(=O)OC(C)(C)C)C3)CC1 (mixture of isomers) [Example 25, (RS)-trans-1-(4-sec-Butoxy-cyclohexyl)-8-chloro-4H,6H-2,3,5,10b-tetraaza-benzo[e]azulene-5-carboxylic acid tert-butyl ester]",3.72
2,"CCC(C)O[C@H]1CC[C@H](c2nnc3n2-c2ccc(Cl)cc2CNC3)CC1 (mixture of isomers) [Example 26, (RS)-trans-1-(4-sec-Butoxy-cyclohexyl)-8-chloro-5,6-dihydro-4H-2,3,5,10b-tetraaza-benzo[e]azulene hydrochloride]",12.6
3,"CCC(C)O[C@H]1CC[C@H](c2nnc3n2-c2ccc(Cl)cc2CN(C)C3)CC1 (mixture of isomers) [Example 27, (RS)-trans-1-(4-sec-Butoxy-cyclohexyl)-8-chloro-5-methyl-5,6-dihydro-4H-2,3,5,10b-tetraaza-benzo[e]azulene]",2.09
4,"COCC(C)O[C@H]1CC[C@H](c2nnc3n2-c2ccc(Cl)cc2CN(C(=O)OC(C)(C)C)C3)CC1 (mixture of isomers) [Example 45, (RS)-trans-8-Chloro-1-[4-(2-methoxy-1-methyl-ethoxy)-cyclohexyl]-4H,6H-2,3,5,10b-tetraaza-benzo[e]azulene-5-carboxylic acid tert-butyl ester]",3.72
5,"COCC(C)O[C@H]1CC[C@H](c2nnc3n2-c2ccc(Cl)cc2CNC3)CC1 (mixture of isomers) [Example 46, (RS)-trans-8-Chloro-1-[4-(2-methoxy-1-methyl-ethoxy)-cyclohexyl]-5,6-dihydro-4H-2,3,5,10b-tetraaza-benzo[e]azulene hydrochloride]",117
6,"COCC(C)O[C@H]1CC[C@H](c2nnc3n2-c2ccc(Cl)cc2CN(C)C3)CC1 (mixture of isomers) [Example 47, (RS)-trans-8-Chloro-1-[4-(2-methoxy-1-methyl-ethoxy)-cyclohexyl]-5-methyl-5,6-dihydro-4H-2,3,5,10b-tetraaza-benzo[e]azulene]",11.2
7,"CC(CO)O[C@H]1CC[C@H](c2nnc3n2-c2ccc(Cl)cc2CN(C(=O)OC(C)(C)C)C3)CC1 (mixture of isomers) [Example 50, (RS)-trans-8-Chloro-1-[4-(2-hydroxy-1-methyl-ethoxy)-cyclohexyl]-4H,6H-2,3,5,10b-tetraaza-benzo[e]azulene-5-carboxylic acid tert-butyl ester]",2.69
8,"CC(CO)O[C@H]1CC[C@H](c2nnc3n2-c2ccc(Cl)cc2CNC3)CC1 (mixture of isomers) [Example 51, (RS)-trans-2-[4-(8-Chloro-5,6-dihydro-4H-2,3,5,10b-tetraaza-benzo[e]azulen-1-yl)-cyclohexyloxy]-propan-1-ol hydrochloride]",186
9,"CC(CO)O[C@H]1CC[C@H](c2nnc3n2-c2ccc(Cl)cc2CN(C)C3)CC1 (mixture of isomers) [Example 52, (RS)-trans-2-[4-(8-Chloro-5-methyl-5,6-dihydro-4H-2,3,5,10b-tetraaza-benzo[e]azulen-1-yl)-cyclohexyloxy]-propan-1-ol]",19.1
10,"CC(CF)O[C@H]1CC[C@H](c2nnc3n2-c2ccc(Cl)cc2CN(C)C3)CC1 (mixture of isomers) [Example 53, (RS)-trans-8-Chloro-1-[4-(2-fluoro-1-methyl-ethoxy)-cyclohexyl]-5-methyl-5,6-dihydro-4H-2,3,5,10b-tetraaza-benzo[e]azulene]",2.82
11,"CC(CC(F)(F)F)O[C@H]1CC[C@H](c2nnc3n2-c2ccc(Cl)cc2CN(C(=O)OC(C)(C)C)C3)CC1 (mixture of isomers) [Example 54, (RS)-trans-8-Chloro-1-[4-(3,3,3-trifluoro-1-methyl-propoxy)-cyclohexyl]-4H,6H-2,3,5,10b-tetraaza-benzo[e]azulene-5-carboxylic acid tert-butyl ester]",8.51
12,"CC(CC(F)(F)F)O[C@H]1CC[C@H](c2nnc3n2-c2ccc(Cl)cc2CNC3)CC1 (mixture of isomers) [Example 55, (RS)-trans-8-Chloro-1-[4-(3,3,3-trifluoro-1-methyl-propoxy)-cyclohexyl]-5,6-dihydro-4H-2,3,5,10b-tetraaza-benzo[e]azulene hydrochloride]",75.9
13,"CC(CC(F)(F)F)O[C@H]1CC[C@H](c2nnc3n2-c2ccc(Cl)cc2CN(C)C3)CC1 (mixture of isomers) [Example 56, (RS)-trans-8-Chloro-5-methyl-1-[4-(3,3,3-trifluoro-1-methyl-propoxy)-cyclohexyl]-5,6-dihydro-4H-2,3,5,10b-tetraaza-benzo[e]azulene]",6.76
14,"CC[C@H](C)O[C@H]1CC[C@H](c2nnc3n2-c2ccc(Cl)cc2CN(C)C3)CC1 (single isomer, unassigned) [Example 28, (+)-trans-1-(4-sec-Butoxy-cyclohexyl)-8-chloro-5-methyl-5,6-dihydro-4H-2,3,5,10b-tetraaza-benzo[e]azulene]",1.58
15,"CC[C@@H](C)O[C@H]1CC[C@H](c2nnc3n2-c2ccc(Cl)cc2CN(C)C3)CC1 (single isomer, unassigned) [Example 29, (−)-trans-1-(4-sec-Butoxy-cyclohexyl)-8-chloro-5-methyl-5,6-dihydro-4H-2,3,5,10b-tetraaza-benzo[e]azulene]",1.58
16,"CC(C)(C)OC(=O)N1Cc2cc(Cl)ccc2-n2c(nnc2[C@H]2CC[C@H](OC3CCCC3)CC2)C1 (stereo in doubt) [Example 36, trans-8-Chloro-1-(4-cyclopentyloxy-cyclohexyl)-4H,6H-2,3,5,10b-tetraaza-benzo[e]azulene-5-carboxylic acid tert-butyl ester]",3.24
17,"COC[C@H](C)O[C@H]1CC[C@H](c2nnc3n2-c2ccc(Cl)cc2CN(C)C3)CC1 (stereo in doubt) [Example 48, (+)-trans-8-Chloro-1-[4-(2-methoxy-1-methyl-ethoxy)-cyclohexyl]-5-methyl-5,6-dihydro-4H-2,3,5,10b-tetraaza-benzo[e]azulene]",47.9
18,"COC[C@@H](C)O[C@H]1CC[C@H](c2nnc3n2-c2ccc(Cl)cc2CN(C)C3)CC1 (stereo in doubt) [Example 49, (−)-trans-8-Chloro-1-[4-(2-methoxy-1-methyl-ethoxy)-cyclohexyl]-5-methyl-5,6-dihydro-4H-2,3,5,10b-tetraaza-benzo[e]azulene]",5.5
19,"CO[C@H]1CC[C@@H](c2nnc3n2-c2ccc(Cl)cc2CN(C)C3)CC1 [Example 1, cis-8-Chloro-1-(4-methoxy-cyclohexyl)-5-methyl-5,6-dihydro-4H-2,3,5,10b-tetraaza-benzo[e]azulene]",93.3
20,"CCO[C@H]1CC[C@H](c2nnc3n2-c2ccc(Cl)cc2CN(C(=O)OC(C)(C)C)C3)CC1 [Example 2, trans-8-Chloro-1-(4-ethoxy-cyclohexyl)-4H,6H-2,3,5,10b-tetraaza-benzo[e]azulene-5-carboxylic acid tert-butyl ester]",2.4
21,"CCO[C@H]1CC[C@H](c2nnc3n2-c2ccc(Cl)cc2CNC3)CC1 [Example 3, trans-8-Chloro-1-(4-ethoxy-cyclohexyl)-5,6-dihydro-4H-2,3,5,10b-tetraaza-benzo[e]azulene hydrochloride]",63.1
22,"CCO[C@H]1CC[C@H](c2nnc3n2-c2ccc(Cl)cc2CN(C)C3)CC1 [Example 4, trans-8-Chloro-1-(4-ethoxy-cyclohexyl)-5-methyl-5,6-dihydro-4H-2,3,5,10b-tetraaza-benzo[e]azulene]",6.76
23,"CCO[C@H]1CC[C@@H](c2nnc3n2-c2ccc(Cl)cc2CN(C(=O)OC(C)(C)C)C3)CC1 [Example 5, cis-8-Chloro-1-(4-ethoxy-cyclohexyl)-4H,6H-2,3,5,10b-tetraaza-benzo[e]azulene-5-carboxylic acid tert-butyl ester]",14.1
24,"CCO[C@H]1CC[C@@H](c2nnc3n2-c2ccc(Cl)cc2CNC3)CC1 [Example 6, cis-8-Chloro-1-(4-ethoxy-cyclohexyl)-5,6-dihydro-4H-2,3,5,10b-tetraaza-benzo[e]azulene hydrochloride]",891
25,"CCO[C@H]1CC[C@@H](c2nnc3n2-c2ccc(Cl)cc2CN(C)C3)CC1 [Example 7, cis-8-Chloro-1-(4-ethoxy-cyclohexyl)-5-methyl-5,6-dihydro-4H-2,3,5,10b-tetraaza-benzo[e]azulene]",55
26,"CC(C)O[C@H]1CC[C@H](c2nnc3n2-c2ccc(Cl)cc2CN(C(=O)OC(C)(C)C)C3)CC1 [Example 8, trans-8-Chloro-1-(4-isopropoxy-cyclohexyl)-4H,6H-2,3,5,10b-tetraaza-benzo[e]azulene-5-carboxylic acid tert-butyl ester]",1.29
27,"CC(C)O[C@H]1CC[C@H](c2nnc3n2-c2ccc(Cl)cc2CNC3)CC1 [Example 9, trans-8-Chloro-1-(4-isopropoxy-cyclohexyl)-5,6-dihydro-4H-2,3,5,10b-tetraaza-benzo[e]azulene hydrochloride]",17.4
